# Data taken from patent US9598440B2, “Inhibitors of IRAK4 activity” (MERCK SHARP & DOHME CORP., priority 2012, dated 2017).
# pIC50: −log10 of the molar value.
# Target: IRAK4 (Homo sapiens (Human), UniProt Q9NWZ3)
# Experiment: Determination of IRAK4 kinase activity (IMAP fluorescence polarization, phosphorylation of fluorescent peptide substrate)
# Assay type: biochemical
# Conditions: 0.5 nM GST tagged IRAK4, 100 nM peptide substrate RP7030, 100 μM ATP, 30 minutes at 25° C.
# In short: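 GST-tagged IRAK4 (0.5 nM) phosphorylated 100 nM fluorescent peptide substrate with 100 µM ATP in Tris-HCl pH 7.2, 1 mM MgCl2, 1 mM DTT, 0.01% Tween 20 for 30 min at 25 °C. Phosphorylation read by IMAP nanoparticle binding as fluorescence polarization increase.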
# Sequence of IRAK4 (Q9NWZ3 whole entry): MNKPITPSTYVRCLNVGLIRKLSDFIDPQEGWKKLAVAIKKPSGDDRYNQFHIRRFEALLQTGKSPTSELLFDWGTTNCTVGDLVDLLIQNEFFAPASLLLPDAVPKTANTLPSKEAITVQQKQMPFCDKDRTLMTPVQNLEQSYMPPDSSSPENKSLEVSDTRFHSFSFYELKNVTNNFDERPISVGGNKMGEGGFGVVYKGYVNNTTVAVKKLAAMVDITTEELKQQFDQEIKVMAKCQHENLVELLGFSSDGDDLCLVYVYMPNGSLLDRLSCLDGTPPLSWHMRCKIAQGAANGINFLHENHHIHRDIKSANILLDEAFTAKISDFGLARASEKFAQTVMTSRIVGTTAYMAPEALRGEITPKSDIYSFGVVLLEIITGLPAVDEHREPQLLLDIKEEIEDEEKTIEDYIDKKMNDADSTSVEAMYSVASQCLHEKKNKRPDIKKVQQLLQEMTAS
row,pIC50,Structure (SMILES)
1,4.94,"Cc1nc(N2CCC(N)CC2)nc(N[C@@H]2C[C@H](CO)[C@@H](O)[C@H]2O)c1-c1nc2ccccc2s1 [Example 92, (1R,2S,3R,5R)-3-((2-(4-aminopiperidin-1-yl)-5-(benzo[d]thiazol-2-yl)-6-methylpyrimidin-4-yl)amino)-5-(hydroxymethyl)cyclopentane-1,2-diol]"
2,4.88,"Cc1nc(NCC2CCNCC2)nc(N[C@@H]2C[C@H](CO)[C@@H](O)[C@H]2O)c1-c1nc2ccccc2s1 [Example 93, (1R,2S,3R,5R)-3-((5-(benzo[d]thiazol-2-yl)-6-methyl-2-((piperidin-4-ylmethyl)amino)pyrimidin-4-yl)amino)-5-(hydroxymethyl)cyclopentane-1,2-diol]"
3,6.06,"COc1cccc(Nc2nc(C)c(-c3nc4ccccc4s3)c(N[C@@H]3C[C@H](CO)[C@@H](O)[C@H]3O)n2)c1 [Example 94, (1R,2S,3R,5R)-3-((5-(benzo[d]thiazol-2-yl)-2-((3-methoxyphenyl)amino)-6-methylpyrimidin-4-yl)amino)-5-(hydroxymethyl)cyclopentane-1,2-diol]"
4,5.33,"Cc1nc(N)nc(N[C@@H]2C[C@H](CO)[C@@H](O)[C@H]2O)c1-c1nc(Br)cs1 [Example 95, (1R,2S,3R,5R)-3-((2-amino-5-(4-bromothiazol-2-yl)-6-methylpyrimidin-4-yl)amino)-5-(hydroxymethyl)cyclopentane-1,2-diol]"
5,4.95,"Cc1nc(Nc2ccccn2)nc(N[C@@H]2C[C@H](CO)[C@@H](O)[C@H]2O)c1-c1nc2ccccc2s1 [Example 97, (1R,2S,3R,5R)-3-((5-(benzo[d]thiazol-2-yl)-6-methyl-2-(pyridin-2-ylamino)pyrimidin-4-yl)amino)-5-(hydroxymethyl)cyclopentane-1,2-diol]"
6,6.02,"Cc1nc(N2CCC(C)CC2)nc(N[C@@H]2C[C@H](CO)[C@@H](O)[C@H]2O)c1-c1nc2ccccc2s1 [Example 98, (1R,2S,3R,5R)-3-((5-(benzo[d]thiazol-2-yl)-6-methyl-2-(4-methylpiperidin-1-yl)pyrimidin-4-yl)amino)-5-(hydroxymethyl)cyclopentane-1,2-diol]"
7,6.53,"Cc1nc(Nc2cccnc2)nc(N[C@@H]2C[C@H](CO)[C@@H](O)[C@H]2O)c1-c1nc2ccccc2s1 [Example 99, (1R,2S,3R,5R)-3-((5-(benzo[d]thiazol-2-yl)-6-methyl-2-(pyridin-3-ylamino)pyrimidin-4-yl)amino)-5-(hydroxymethyl)cyclopentane-1,2-diol]"
8,6.86,"Cc1cc(Nc2nc(C)c(-c3nc4ccccc4s3)c(N[C@@H]3C[C@H](CO)[C@@H](O)[C@H]3O)n2)ccn1 [Example 100, (1R,2S,3R,5R)-3-((5-(benzo[d]thiazol-2-yl)-6-methyl-2-((2-methylpyridin-4-yl)amino)pyrimidin-4-yl)amino)-5-(hydroxymethyl)cyclopentane-1,2-diol]"
9,6.00,"Cc1nc(N)nc(N[C@@H]2C[C@H](CO)[C@@H](O)[C@H]2O)c1-c1nc2ccccc2o1 [Example 101, (1R,2S,3R,5R)-3-((2-amino-5-(benzo[d]oxazol-2-yl)-6-methylpyrimidin-4-yl)amino)-5-(hydroxymethyl)cyclopentane-1,2-diol]"
10,6.85,"Cc1nc(Nc2cccc(C(N)=O)c2)nc(N[C@@H]2C[C@H](CO)[C@@H](O)[C@H]2O)c1-c1nc2ccccc2s1 [Example 102, 3-((5-(benzo[d]thiazol-2-yl)-4-(((1R,2S,3R,4R)-2,3-dihydroxy-4-(hydroxymethyl)cyclopentyl)amino)-6-methylpyrimidin-2-yl)amino)benzamide]"
11,6.61,"Cc1nc(Nc2ccc(O)cc2)nc(N[C@@H]2C[C@H](CO)[C@@H](O)[C@H]2O)c1-c1nc2ccccc2s1 [Example 103, (1R,2S,3R,5R)-3-((5-(benzo[d]thiazol-2-yl)-2-((4-hydroxyphenyl)amino)-6-methylpyrimidin-4-yl)amino)-5-(hydroxymethyl)cyclopentane-1,2-diol]"
12,6.66,"Cc1nc(Nc2cccc(O)c2)nc(N[C@@H]2C[C@H](CO)[C@@H](O)[C@H]2O)c1-c1nc2ccccc2s1 [Example 104, (1R,2S,3R,5R)-3-((5-(benzo[d]thiazol-2-yl)-2-((3-hydroxyphenyl)amino)-6-methylpyrimidin-4-yl)amino)-5-(hydroxymethyl)cyclopentane-1,2-diol]"
13,7.03,"COc1cc(Nc2nc(C)c(-c3nc4ccccc4s3)c(N[C@@H]3C[C@H](CO)[C@@H](O)[C@H]3O)n2)ccn1 [Example 105, (1R,2S,3R,5R)-3-((5-(benzo[d]thiazol-2-yl)-2-((2-methoxypyridin-4-yl)amino)-6-methylpyrimidin-4-yl)amino)-5-(hydroxymethyl)cyclopentane-1,2-diol]"
14,6.28,"Cc1nc(Nc2cccc(Cl)c2)nc(N[C@@H]2C[C@H](CO)[C@@H](O)[C@H]2O)c1-c1nc2ccccc2s1 [Example 106, (1R,2S,3R,5R)-3-((5-(benzo[d]thiazol-2-yl)-2-((3-chlorophenyl)amino)-6-methylpyrimidin-4-yl)amino)-5-(hydroxymethyl)cyclopentane-1,2-diol]"
15,8.10,"Cc1cc(Nc2nc(C)c(-c3nc4ccccc4s3)c(N[C@@H]3C[C@H](C(C)(C)O)[C@@H](O)[C@H]3O)n2)cc(C)n1 [Example 107, 5-(benzo[d]thiazol-2-yl)-6-(((1R,2S,3R,4S)-2,3-dihydroxy-4-(2-hydroxypropan-2-yl)cyclopentyl)amino)-2-((2,6-dimethylpyridin-4-yl)amino)-4-methylpyrimidine]"
16,6.42,"Cc1cc(Nc2ncc(-c3nc4ccccc4s3)c(N[C@H]3C[C@@H](CO)[C@H](O)[C@@H]3O)n2)cc(C)n1 [Example 108, 5-(benzo[d]thiazol-2-yl)-6-(((1S,2R,3 S,4S)-2,3-dihydroxy-4-(hydroxymethyl)cyclopentyl)amino)-2-((2,6-dimethylpyridin-4-yl)amino)pyrimidine]"
17,9.70,"Cc1cc(Nc2ncc(-c3ccc4ccccc4n3)c(N[C@@H]3C[C@H](C(C)(C)O)[C@@H](O)[C@H]3O)n2)ccn1 [Example 124, 6-(((1R,2S,3R,4R)-2,3-dihydroxy-4-(2-hydroxypropan-2-yl)cyclopeltyl)amino)-2-((2-methylpyridin-4-yl)amino)-5-(quinolin-2-yl)pyrimidine]"
18,7.80,"Cc1cc(Nc2ncc(-c3nc4ccccc4s3)c(N[C@@H]3C[C@H](C(C)(C)O)[C@@H](O)[C@H]3O)n2)ccn1 [Example 127, (1R,2S,3R,5S)-3-((5-(benzo[d]thiazol-2-yl)-2-((2-methylpyridine-4-yl)amino)pyrimidin-4-yl)amino)-5-(2-hydroxypropan-2-yl)cyclopentane-1,2-diol]"
19,7.30,"CC(C)(O)[C@H]1C[C@@H](Nc2nc(NC3CCC3)ncc2-c2nc3ccccc3s2)[C@H](O)[C@@H]1O [Example 128, (1R,2S,3R,5S)-3-((5-(benzo[d]thiazol-2-yl)-2-(cyclobutylamino)pyrimidin-4-yl)amino)-5-(2-hydroxypropan-2-yl)cyclopentane-1,2-diol]"
20,8.85,"CC(C)(O)[C@H]1C[C@@H](Nc2nc(Nc3cccc(C(N)=O)c3)ncc2-c2nc3ccccc3s2)[C@H](O)[C@@H]1O [Example 129, 3-((5-(benzo[d]thiazol-2-yl)-4-(((1R,2S,3R,4S)-2,3-dihydroxy-4-(2-hydroxypropan-2-yl)cyclopentyl)amino)pyrimidin-2-yl)amino)benzamide]"
21,7.64,"CC(C)(O)[C@H]1C[C@@H](Nc2nc(N)ncc2-c2nc3ccccc3s2)[C@H](O)[C@@H]1O [Example 130, (1R,2S,3R,5S)-3-((2-amino-5-(benzo[d]thiazol-2-yl)pyrimidin-4-yl)amino)-5-(2-hydroxypropan-2-yl)cyclopentane-1,2-diol]"
22,6.42,"CC(C)(O)[C@H]1C[C@@H](Nc2nc(NC3CCN(S(C)(=O)=O)CC3)ncc2-c2nc3ccccc3s2)[C@H](O)[C@@H]1O [Example 131, (1R,2S,3R,5S)-3-((5-(benzo[d]thiazol-2-yl)-2-((1-(methylsulfonyl)piperidin-4-yl)amino)pyrimidin-4-yl)amino)-5-(2-hydroxypropan-2-yl)cyclopentane-1,2-diol]"
23,7.27,"Cc1csc(-c2cnc(N)nc2N[C@@H]2C[C@H](C(C)(C)O)[C@@H](O)[C@H]2O)n1 [Example 132, (1R,2S,3R,5S)-3-((2-amino-5-(4-methylthiazol-2-yl)pyrimidin-4-yl)amino)-5-(2-hydroxypropan-2-yl)cyclopentane-1,2-diol]"
24,9.70,"Cc1cc(Nc2ncc(-c3nc(C)cs3)c(N[C@@H]3C[C@H](C(C)(C)O)[C@@H](O)[C@H]3O)n2)cc(C)n1 [Example 133, (1R,2S,3R,5S)-3-((2-((2,6-dimethylpyridin-4-yl)amino)-5-(4-methylthiazol-2-yl)pyrimidin-4-yl)amino)-5-(2-hydroxypropan-2-yl)cyclopentane-1,2-diol]"
25,6.57,"Cc1csc(-c2cnc(NC3CCC3)nc2N[C@@H]2C[C@H](C(C)(C)O)[C@@H](O)[C@H]2O)n1 [Example 134, (1R,2S,3R,5S)-3-((2-(cyclobutylamino)-5-(4-methylthiazol-2-yl)pyrimidin-4-yl)amino)-5-(2-hydroxypropan-2-yl)cyclopentane-1,2-diol]"
26,9.00,"COc1cc(Nc2ncc(-c3nc(C)cs3)c(N[C@@H]3C[C@H](C(C)(C)O)[C@@H](O)[C@H]3O)n2)ccn1 [Example 135, (1S,2R,3 S,5R)-3-(2-hydroxypropan-2-yl)-5-((2-((2-methoxypyridin-4-yl)amino)-5-(4-methylthiazol-2-yl)pyrimidin-4-yl)amino)cyclopentane-1,2-diol]"
27,7.54,"COc1cc(Nc2ncc(-c3nc4ccccc4s3)c(N[C@@H]3C[C@H](CO)[C@@H](O)[C@H]3OC)n2)ccn1 [Example 139, (1R,2S,3R,5R)-3-((5-(benzo[d]thiazol-2-yl)-2-((2-methoxypyridin-4-yl)amino)pyrimidin-4-yl)amino)-5-(hydroxymethyl)-2-methoxycyclopentanol]"
